Experimental findings from US20250241978A1, “PEPTIDE FOR PREVENTION OR TREATMENT OF COVID-19” (priority 2020, published 2025) are described below.

For the assay, the system named is severe COVID-19 patients. Briefly: Observation of seriously ill COVID-19 ICU patients treated with orally inhaled solnatide (Example 2).

Description: Community patients with serious health conditions were admitted to a local hospital for examination. In some of these patients, COVID-19 was confirmed by positive testing for SARS-CoV-2 by nasopharyngeal swab and real-time RT-PCR.
Following worsening of conditions, seriously ill COVID-19 patients were admitted to the ICU of the hospital.
These patients were treated with placebo only in addition to standard critical care treatment and life support.
During an observation period of 7 days, patient-centred clinical parameters which reflect the severity of COVID-19 were recorded.
The SOFA score was used to track a patient's status during the stay in an intensive care unit (ICU) to determine the extent of the patient's organ function or rate of failure.

On to cyclo-CGQRETPEGAEAKPWYC [solnatide], for which the “mean SOFA score at end of treatment period” value (COVID-19 ICU patients, orally inhaled solnatide twice daily plus standard critical care, after 7-day treatment period, FIG. 1) is 8. Besides, the “mean SOFA score at start of treatment period” value (COVID-19 ICU patients, orally inhaled solnatide twice daily plus standard critical care, start of 7-day treatment, FIG. 1) stood at 12. For the same substance, under “COVID-19 ICU patients, orally inhaled solnatide twice daily, 7-day treatment period, elevated at initiation, FIG. 3”, the “mean body temperature, change during treatment” value is on record as “decreased”. Also, the “mean dynamic lung compliance at end of treatment period” value (COVID-19 ICU patients, orally inhaled solnatide twice daily, after 7-day treatment period, FIG. 2) was 50 mL/cm H2O. Besides, the “mean dynamic lung compliance at start of treatment period” value (COVID-19 ICU patients, orally inhaled solnatide twice daily, start of 7-day treatment, FIG. 2) is on record as “approx. 35 mL/cm H2O”. Moreover, the “patients who died within 28 days after onset of COVID-19 symptoms” value (severe COVID-19 patients treated with solnatide, comparator cohort: 3 patients died) is recorded as “none”.
